Data reported in article PMC6582358, “Reversible ADP-ribosylation of RNA” (Nucleic Acids Research, 2019).

Experiments:
Format in all cases: biochemical
[1] = target: T1, PARP10 cat (Homo sapiens, UniProt Q53GL7); assay: […]-NAD+ ADP-ribosylation of RNA, urea-PAGE autoradiography; settings: acceptor 5'-phosphorylated ssRNA; 50 uM NAD+, 5 mM MgCl2, pH 7.6, 37 °C; labelled compound
T1 construct: catalytic domain (818-1025), GST tag (pGEX-4T1), E. coli Rosetta DE3, gel filtration
T1 sequence (Q53GL7 818-1025): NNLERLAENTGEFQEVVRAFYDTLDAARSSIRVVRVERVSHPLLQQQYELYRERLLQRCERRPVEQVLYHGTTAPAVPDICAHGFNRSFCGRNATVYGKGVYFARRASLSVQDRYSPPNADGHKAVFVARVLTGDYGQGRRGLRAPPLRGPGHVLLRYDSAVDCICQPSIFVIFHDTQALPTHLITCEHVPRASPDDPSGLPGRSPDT

[2] = target: T2, PARP3 FL (Homo sapiens, UniProt Q9Y6F1); assay: […]-NAD+ ADP-ribosylation of DNA, urea-PAGE autoradiography; settings: acceptor DNA ends; pH 7.6, 37 °C; labelled compound
T2 construct: full length, His tag (pDEST17)
T2 sequence (Q9Y6F1 1-533): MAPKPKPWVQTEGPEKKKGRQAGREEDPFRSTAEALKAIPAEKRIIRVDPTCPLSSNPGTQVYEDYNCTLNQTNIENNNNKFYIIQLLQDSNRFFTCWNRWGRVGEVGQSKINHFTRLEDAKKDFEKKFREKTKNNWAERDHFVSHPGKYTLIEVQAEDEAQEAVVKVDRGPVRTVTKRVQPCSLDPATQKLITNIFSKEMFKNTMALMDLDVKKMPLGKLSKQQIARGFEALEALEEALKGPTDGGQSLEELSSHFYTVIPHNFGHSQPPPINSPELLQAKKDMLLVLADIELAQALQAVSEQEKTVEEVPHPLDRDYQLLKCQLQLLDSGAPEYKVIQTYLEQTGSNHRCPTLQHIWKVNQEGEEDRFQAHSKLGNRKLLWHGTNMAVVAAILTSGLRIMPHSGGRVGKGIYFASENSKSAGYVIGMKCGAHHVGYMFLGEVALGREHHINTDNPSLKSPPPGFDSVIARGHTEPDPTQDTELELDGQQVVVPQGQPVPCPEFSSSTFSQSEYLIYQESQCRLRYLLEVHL

[3] = target: T3, TRPT1 (Homo sapiens, UniProt Q86TN4); assay: […]-NAD+ ADP-ribosylation of RNA, urea-PAGE autoradiography; settings: acceptor 5'-phosphorylated ssRNA; 50 uM NAD+, 5 mM MgCl2, pH 7.6, 37 °C; labelled compound
T3 construct: codon-optimised synthetic gene, His tag, pET28a, E. coli Rosetta DE3, Ni and gel filtration
T3 sequence (Q86TN4 1-253): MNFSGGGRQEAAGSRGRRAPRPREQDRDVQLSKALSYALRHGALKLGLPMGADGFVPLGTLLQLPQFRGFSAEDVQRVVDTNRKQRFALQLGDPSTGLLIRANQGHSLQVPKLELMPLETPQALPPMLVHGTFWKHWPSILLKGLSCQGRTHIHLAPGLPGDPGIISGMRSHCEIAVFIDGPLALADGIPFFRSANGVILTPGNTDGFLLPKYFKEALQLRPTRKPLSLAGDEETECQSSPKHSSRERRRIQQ

[4] = target: T4, PARP10 FL (Homo sapiens, UniProt Q53GL7); assay: as above; settings: acceptor 5'-phosphorylated ssRNA; 50 uM NAD+, 5 mM MgCl2, pH 7.6, 37 °C; labelled compound
T4 construct: full length, His6-SUMO-TEV vector, E. coli Rosetta DE3, Ni, heparin and gel filtration
T4 sequence (Q53GL7 1-1025): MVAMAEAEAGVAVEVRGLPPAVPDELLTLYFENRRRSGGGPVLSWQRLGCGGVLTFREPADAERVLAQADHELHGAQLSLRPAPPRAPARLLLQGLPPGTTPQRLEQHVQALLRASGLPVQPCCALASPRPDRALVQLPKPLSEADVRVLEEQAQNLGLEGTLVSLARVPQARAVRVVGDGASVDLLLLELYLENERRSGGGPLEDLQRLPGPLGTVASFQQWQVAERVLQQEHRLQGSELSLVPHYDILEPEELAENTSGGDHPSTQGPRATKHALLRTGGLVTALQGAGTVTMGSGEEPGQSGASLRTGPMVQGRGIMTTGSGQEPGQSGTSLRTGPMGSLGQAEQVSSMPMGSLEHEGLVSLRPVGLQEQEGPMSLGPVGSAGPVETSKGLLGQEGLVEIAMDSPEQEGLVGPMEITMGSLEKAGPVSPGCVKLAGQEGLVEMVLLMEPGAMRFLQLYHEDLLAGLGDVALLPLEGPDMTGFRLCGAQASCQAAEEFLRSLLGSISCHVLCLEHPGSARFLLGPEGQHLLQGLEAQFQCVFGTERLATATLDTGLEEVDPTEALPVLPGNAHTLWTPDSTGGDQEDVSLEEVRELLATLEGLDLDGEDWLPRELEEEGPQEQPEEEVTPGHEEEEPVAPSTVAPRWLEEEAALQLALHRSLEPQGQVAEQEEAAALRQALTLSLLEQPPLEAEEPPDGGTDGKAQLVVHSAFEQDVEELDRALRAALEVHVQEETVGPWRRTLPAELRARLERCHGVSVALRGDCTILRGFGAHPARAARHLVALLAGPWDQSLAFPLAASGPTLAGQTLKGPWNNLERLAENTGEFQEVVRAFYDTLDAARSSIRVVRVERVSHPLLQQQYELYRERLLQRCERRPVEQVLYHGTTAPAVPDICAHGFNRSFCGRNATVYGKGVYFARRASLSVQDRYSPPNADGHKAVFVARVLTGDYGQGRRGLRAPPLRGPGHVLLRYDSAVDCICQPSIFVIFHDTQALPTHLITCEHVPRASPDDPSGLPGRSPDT

SMILES: NC(=O)c1ccc[n+]([C@@H]2O[C@H](COP(=O)(O)OP(=O)(O)OC[C@H]3O[C@@H](n4cnc5c(N)ncnc54)[C@H](O)[C@@H]3O)[C@@H](O)[C@H]2O)c1 [NAD+]
- 32P-NAD+ ADP-ribosylation of RNA, urea-PAGE autoradiography [1]: RNA ADP-ribosylation activity of PARP10 is time and NAD^+ concentration dependent
- 32P-NAD+ ADP-ribosylation of DNA, urea-PAGE autoradiography [2]: PARP3 could only ADP-ribosylate DNA ends
- 32P-NAD+ ADP-ribosylation of RNA, urea-PAGE autoradiography [3]: TRPT1 based RNA modification is time and NAD^+ concentration dependent
- 32P-NAD+ ADP-ribosylation of RNA, urea-PAGE autoradiography [4]: PARP10 full length can also ADP-ribosylate phosphorylated RNA ends
